Assay results: patent publication US7541368B2, “Pyrazoles as inhibitors of tumor necrosis factor” (Aventis Pharmaceuticals Inc., priority 2003, dated 2009)

system: TNF-alpha release in THP-1 cells; test: LPS-induced TNF-alpha release in THP-1 cells; format: cell-based; conditions: Homo sapiens, THP-1, LPS-stimulated THP-1 cells; read-out: 50% inhibition in the LPS-induced TNF-alpha release in THP-1 cells assay at concentrations within the range
Method in brief: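 Undifferentiated THP-1 monocytes (1×10^6 cells/ml, 1% FCS) preincubated 1 h at 37° C with compound (1×10^−9 to 1×10^−6 M, 0.3% DMSO), then stimulated with LPS (20 μg/ml) for 18 h. Supernatant TNF-alpha measured by sandwich ELISA (TMB read-out), interpolated from a log/log standard curve (0.125-16 ng/ml).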

| SMILES | IC50 [nM] |
| --- | --- |
| Cc1ccc(-n2nc(C(C)(C)C)cc2NC(=O)Nc2ccc(CC3CCN(C(=O)Cc4ccc(F)cc4)CC3)cc2)cc1 [Compound A314, 1-(5-tert-Butyl-2-p-tolyl-2H-pyrazol-3-yl)-3-(4-{1-[2-(4-fluoro-phenyl)-acetyl]-piperidin-4-ylmethyl}-phenyl)-urea] | 10 to 500 |
| Cc1ccc(-n2nc(C(C)(C)C)cc2NC(=O)Nc2ccc(CC3CCN(C(=O)c4ccc(CO)cc4)CC3)cc2)cc1 [Compound A315, 1-(5-tert-Butyl-2-p-tolyl-2H-pyrazol-3-yl)-3-{4-[1-(4-hydroxymethyl-benzoyl)-piperidin-4-ylmethyl]-phenyl}-urea] | 10 to 500 |
| COc1ccc(CC(=O)N2CCC(Cc3ccc(NC(=O)Nc4cc(C(C)(C)C)nn4-c4ccc(C)cc4)cc3)CC2)cc1 [Compound A319, 1-(5-tert-Butyl-2-p-tolyl-2H-pyrazol-3-yl)-3-(4-{1-[2-(4-methoxy-phenyl)-acetyl]-piperidin-4-ylmethyl}-phenyl)-urea] | 10 to 500 |
| Cc1ccc(-n2nc(C(C)(C)C)cc2NC(=O)Nc2ccc(CC3CCN(C(=O)c4cnn(-c5ccccc5)c4C)CC3)cc2)cc1 [Compound A331, 1-(5-tert-Butyl-2-p-tolyl-2H-pyrazol-3-yl)-3-{4-[1-(5-methyl-1-phenyl-1H-pyrazole-4-carbonyl)-piperidin-4-ylmethyl]-phenyl}-urea] | 10 to 500 |
| Cc1ccc(-n2nc(C(C)(C)C)cc2NC(=O)Nc2ccc(CC3CCN(C(=O)c4ccc(N)nc4)CC3)cc2)cc1 [Compound A331A, 1-{4-[1-(6-Amino-pyridine-3-carbonyl)-piperidin-4-ylmethyl]-phenyl}-3-(5-tert-butyl-2-p-tolyl-2H-pyrazol-3-yl)-urea] | 10 to 500 |
| Cc1ccc(-n2nc(C(C)(C)C)cc2NC(=O)Nc2ccc(CC3CCN(C(=O)c4ccc(Cl)nc4)CC3)cc2)cc1 [Compound A332, 1-(5-tert-Butyl-2-p-tolyl-2H-pyrazol-3-yl)-3-{4-[1-(6-chloro-pyridine-3-carbonyl)-piperidin-4-ylmethyl]-phenyl}-urea] | 10 to 500 |
| Cc1ccc(-n2nc(C(C)(C)C)cc2NC(=O)Nc2ccc(CC3CCN(C(=O)c4ccc5ncsc5c4)CC3)cc2)cc1 [Compound A338, 1-{4-[1-(Benzothiazole-6-carbonyl)-piperidin-4-ylmethyl]-phenyl}-3-(5-tert-butyl-2-p-tolyl-2H-pyrazol-3-yl)-urea] | 10 to 500 |
| CCCC(=O)N1CCC(Cc2ccc(NC(=O)Nc3cc(C(C)(C)C)nn3-c3ccc(C)cc3)cc2)CC1 [Compound A343, 1-(5-tert-Butyl-2-p-tolyl-2H-pyrazol-3-yl)-3-[4-(1-butyryl-piperidin-4-ylmethyl)-phenyl]-urea] | 10 to 500 |
| Cc1ccc(-n2nc(C(C)(C)C)cc2NC(=O)Nc2ccc(CC3CCN(C(=O)CC4CCCC4)CC3)cc2)cc1 [Compound A349, 1-(5-tert-Butyl-2-p-tolyl-2H-pyrazol-3-yl)-3-{4-[1-(2-cyclopentyl-acetyl)-piperidin-4-ylmethyl]-phenyl}-urea] | 10 to 500 |
| Cc1ccc(-n2nc(C(C)(C)C)cc2NC(=O)Nc2ccc(CC3CCN(C(=O)CCc4ccccc4)CC3)cc2)cc1 [Compound A354, 1-(5-tert-Butyl-2-p-tolyl-2H-pyrazol-3-yl)-3-{4-[1-(3-phenyl-propionyl)-piperidin-4-ylmethyl]-phenyl}-urea] | 10 to 500 |
| Cc1ccc(-n2nc(C(C)(C)C)cc2NC(=O)Nc2ccc(CC3CCN(C(=O)Cc4c[nH]c5ccccc45)CC3)cc2)cc1 [Compound A358, 1-(5-tert-Butyl-2-p-tolyl-2H-pyrazol-3-yl)-3-{4-[1-(2-1H-indol-3-yl-acetyl)-piperidin-4-ylmethyl]-phenyl}-urea] | 10 to 500 |
| Cc1ccc(-n2nc(C(C)(C)C)cc2NC(=O)Nc2ccc(CC3CCN(C(=O)c4ccc5cc[nH]c5c4)CC3)cc2)cc1 [Compound A362, 1-(5-tert-Butyl-2-p-tolyl-2H-pyrazol-3-yl)-3-{4-[1-(1H-indole-6-carbonyl)-piperidin-4-ylmethyl]-phenyl}-urea] | 10 to 500 |
| Cc1ccc(-n2nc(C(C)(C)C)cc2NC(=O)Nc2ccc(CC3CCN(C(=O)c4cccc(Nc5nc(C)cc(C)n5)c4)CC3)cc2)cc1 [Compound A371, 1-(5-tert-Butyl-2-p-tolyl-2H-pyrazol-3-yl)-3-(4-{1-[3-(4,6-dimethyl-pyrimidin-2-ylamino)-benzoyl]-piperidin-4-ylmethyl}-phenyl)-urea] | 10 to 500 |
| COc1ccc2c(CC(=O)N3C4CCC3CC(Cc3cccc(NC(=O)Nc5cc(C(C)(C)C)nn5-c5ccc(C)cc5)c3)C4)coc2c1 (centres unmarked) [Compound A618, 1-(5-tert-Butyl-2-p-tolyl-2H-pyrazol-3-yl)-3-(3-{8-[2-(6-methoxy-benzofuran-3-yl)-acetyl]-8-aza-bicyclo[3.2.1]oct-3-ylmethyl}-phenyl)-urea] | 10 to 500 |
| Cc1ccc(-n2nc(C(C)(C)C)cc2NC(=O)Nc2cccc(CC3CC4CCC(C3)N4C(=O)Cc3cn(C)c4ccccc34)c2)cc1 (centres unmarked) [Compound A641, 1-(5-tert-Butyl-2-p-tolyl-2H-pyrazol-3-yl)-3-(3-{8-[2-(1-methyl-1H-indol-3-yl)-acetyl]-8-aza-bicyclo[3.2.1]oct-3-ylmethyl}-phenyl)-urea] | 10 to 500 |

Now from value to molecule:

| IC50 [nM] | SMILES |
| --- | --- |
| 10 to 500 | Cc1ccc(-n2nc(C(C)(C)C)cc2NC(=O)Nc2ccc(CC3CCN(C(=O)c4ccccn4)CC3)cc2)cc1 [Compound A380, 1-(5-tert-Butyl-2-p-tolyl-2H-pyrazol-3-yl)-3-{4-[1-(pyridine-2-carbonyl)-piperidin-4-ylmethyl]-phenyl}-urea] |
| 10 to 500 | Cc1ccc(-n2nc(C(C)(C)C)cc2NC(=O)Nc2ccc(CC3CCN(C(=O)c4ccc5ccccc5n4)CC3)cc2)cc1 [Compound A383, 1-(5-tert-Butyl-2-p-tolyl-2H-pyrazol-3-yl)-3-{4-[1-(quinoline-2-carbonyl)-piperidin-4-ylmethyl]-phenyl}-urea] |
| 10 to 500 | Cc1ccc(-n2nc(C(C)(C)C)cc2NC(=O)Nc2ccc(CC3CCN(C(=O)c4cnc5ccccc5c4)CC3)cc2)cc1 [Compound A384, 1-(5-tert-Butyl-2-p-tolyl-2H-pyrazol-3-yl)-3-{4-[1-(quinoline-3-carbonyl)-piperidin-4-ylmethyl]-phenyl}-urea] |
| 10 to 500 | Cc1ccc(-n2nc(C(C)(C)C)cc2NC(=O)Nc2ccc(CC3CCN(C(=O)c4ccnc5ccccc45)CC3)cc2)cc1 [Compound A385, 1-(5-tert-Butyl-2-p-tolyl-2H-pyrazol-3-yl)-3-{4-[1-(quinoline-4-carbonyl)-piperidin-4-ylmethyl]-phenyl}-urea] |
| 10 to 500 | Cc1ccc(-n2nc(C(C)(C)C)cc2NC(=O)Nc2ccc(CC3CCN(C(=O)Cc4cccs4)CC3)cc2)cc1 [Compound A388, 1-(5-tert-Butyl-2-p-tolyl-2H-pyrazol-3-yl)-3-{4-[1-(2-thiophen-2-yl-acetyl)-piperidin-4-ylmethyl]-phenyl}-urea] |
| 10 to 500 | Cc1ccc(-n2nc(C(C)(C)C)cc2NC(=O)Nc2ccc(CC3CCN(C(=O)Cc4ccsc4)CC3)cc2)cc1 [Compound A389, 1-(5-tert-Butyl-2-p-tolyl-2H-pyrazol-3-yl)-3-{4-[1-(2-thiophen-3-yl-acetyl)-piperidin-4-ylmethyl]-phenyl}-urea] |
| 10 to 500 | CC(=O)c1ccc(NC(=O)N2CCC(Cc3cccc(NC(=O)Nc4cc(C(C)(C)C)nn4-c4ccc(C)cc4)c3)CC2)cc1 [Compound A403, 4-{3-[3-(5-tert-Butyl-2-p-tolyl-2H-pyrazol-3-yl)-ureido]-benzyl}-piperidine-1-carboxylic acid (4-acetyl-phenyl)-amide] |
| 10 to 500 | Cc1ccc(-n2nc(C(C)(C)C)cc2NC(=O)Nc2ccc(CC3CCN(C(=O)Nc4ccc5c(c4)OCO5)CC3)cc2)cc1 [Compound A429, 4-{4-[3-(5-tert-Butyl-2-p-tolyl-2H-pyrazol-3-yl)-ureido]-benzyl}-piperidine-1-carboxylic acid benzo[1,3]dioxol-5-ylamide] |
| 10 to 500 | Cc1ccc(-n2nc(C(C)(C)C)cc2NC(=O)Nc2ccc(CC3CCN(C(=O)Nc4ccc(N(C)C)cc4)CC3)cc2)cc1 [Compound A450, 4-{4-[3-(5-tert-Butyl-2-p-tolyl-2H-pyrazol-3-yl)-ureido]-benzyl}-piperidine-1-carboxylic acid (4-dimethylamino-phenyl)-amide] |
| 10 to 500 | COc1ccc(OC)c(S(=O)(=O)N2CCC(Cc3ccc(NC(=O)Nc4cc(C(C)(C)C)nn4-c4ccc(C)cc4)cc3)CC2)c1 [Compound A564, 1-(5-tert-Butyl-2-p-tolyl-2H-pyrazol-3-yl)-3-{4-[1-(2,5-dimethoxy-benzenesulfonyl)-piperidin-4-ylmethyl]-phenyl}-urea] |
| 10 to 500 | Cc1ccc(-n2nc(C(C)(C)C)cc2NC(=O)Nc2ccc(CC3CCN(S(=O)(=O)c4ccccc4Cl)CC3)cc2)cc1 [Compound A567, 1-(5-tert-Butyl-2-p-tolyl-2H-pyrazol-3-yl)-3-{4-[1-(2-chloro-benzenesulfonyl)-piperidin-4-ylmethyl]-phenyl}-urea] |
| 10 to 500 | COc1ccc(C)cc1S(=O)(=O)N1CCC(Cc2ccc(NC(=O)Nc3cc(C(C)(C)C)nn3-c3ccc(C)cc3)cc2)CC1 [Compound A592, 1-(5-tert-Butyl-2-p-tolyl-2H-pyrazol-3-yl)-3-{4-[1-(2-methoxy-5-methyl-benzenesulfonyl)-piperidin-4-ylmethyl]-phenyl}-urea] |
| 10 to 500 | CCS(=O)(=O)N1CCC(Cc2ccc(NC(=O)Nc3cc(C(C)(C)C)nn3-c3ccc(C)cc3)cc2)CC1 [Compound A606, 1-(5-tert-Butyl-2-p-tolyl-2H-pyrazol-3-yl)-3-[4-(1-ethanesulfonyl-piperidin-4-ylmethyl)-phenyl]-urea] |
| 10 to 500 | COC(=O)c1ccccc1S(=O)(=O)N1CCC(Cc2ccc(NC(=O)Nc3cc(C(C)(C)C)nn3-c3ccc(C)cc3)cc2)CC1 [Compound A609, 2-(4-{4-[3-(5-tert-Butyl-2-p-tolyl-2H-pyrazol-3-yl)-ureido]-benzyl}-piperidine-1-sulfonyl)-benzoic acid methyl ester] |
